# Measurements reported in patent US20260258025A1, “INHIBITORS OF TDP-43 AND TAU AGGREGATION” (Aquinnah Pharmaceuticals, inc., priority 2023, published 2026).
# Entries after “also recorded” stand apart in the source; their conditions may differ.
# Columns and labels:
# TDP-43 aggregation = TDP-43 aggregation assay in SY5Y TDP-43WT cells (high content imaging); assay type: cell-based; conditions: Homo sapiens, tetracycline induction 24 hrs, 1 hour compound pre-treatment, sodium arsenite 23 hrs, 8-point dose curve, percentage of cells with TDP-43 aggregates, read-out: IC50, Inhibition of TDP-43 Aggregation
# How it was run: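 Tetracycline-inducible eGFP-tagged wild-type human TDP-43 in SH-SY5Y cells, induced 24 h ([…]), compound pre-treated 1 h, then sodium arsenite […] for 23 h. Fixed cells imaged; percentage of DAPI-counted cells with aggregates gives IC50 from 8-point curves.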
# TDP-43 splicing function = assay: qRT-PCR of TDP-43 sentinel transcripts (STMN2, ELAVL3, PFKP) in MG-132 challenged human motor neurons; assay type: cell-based
# Protocol: Cell culture and differentiation of iPS Cells into motor neurons. Pluripotent stem cells were grown with mTeSR Plus medium on tissue culture dishes coated with Matrigel, and maintained in 5% CO2 incubators at 37° C. Stem cells were passaged as small aggregates of cells after 1 mM EDTA treatment. […] was added to the cultures for 16-24 h after dissociation to prevent cell death. The iP11NA iPS cell line was acquired from ALSTEM. This cell line was generated from pre-made footprint-free human iPS cells with DOX inducible Ngn2 that has been stably integrated into the human AAVS1 “Safe Harbor” site, and provides a convenient means to differentiate human iPS cells into neurons rapidly and efficiently. Motor neuron differentiation was achieved using a modified 5-day strategy.
# This approach relies on neural induction through small molecule inhibition of SMAD signaling, accelerated neural differentiation through forced Ngn2 expression, and motor neuron patterning through the activation of retinoic acid and Sonic Hedgehog signaling pathways. In brief, pluripotent stem cells were dissociated to single cells using accutase and plated at a density of 80,000 cells per cm^2 on Matrigel-coated culture plates with mTeSR Plus medium supplemented with ROCK inhibitor (10 μM Y-27632, ATCC). When cells reached 50% confluency, medium was changed to differentiation medium BrainPhys medium supplemented with N2-A, SM1, […]. This time point was defined as day 0 (d0) of motor neuron differentiation. Treatment with small molecules was carried out as follows: 2 μg/mL Doxycyline, 10 μM SB431542, 100 nM LDN-193189, […] and 1 μM Smoothend agonist and 10 uM Edu. The full list of materials and their descriptions is included below in Table 5.
# Total RNA was isolated from d14 motor neurons for qRT-PCR assays using TaqMan™ Fast Advanced Cells-to-CT™ Kit according to manufacturer's instructions. 7500 neurons per well of 96-well culture were routinely used for processing. qRT-PCR was then performed using multiplex assays from IDT using PrimeTime™ Gene Expression Master Mix (IDT) on a QuantStudio6Pro system. Quantitative levels for all genes assayed were normalized using GAPDH expression. […] Primers and probes used in this study are in Table 5.
# To this end, we first examined whether proteasome inhibition, which triggers TDP-43 nuclear depletion, also leads to splicing defects associated with TDP-43 loss-of function. For comparison, we also treated human motor neurons with puromycin, which recruits TDP-43 to stress granules in the cytoplasm. We chose to analyze several transcripts that have relevant connections to ALS biology including STMN26,12, PFKP19, and ELAVL320,21. We used quantitative reverse transcription-polymerase chain reaction (qRT-PCR) to validate that in MG-132-treated motor neurons these transcripts were altered like in ALS patients.
# Using this method, we next obtained RNA from independent motor neuron biological replicates after proteasome inhibition and Compound 183 treatment to determined by qRT-PCR the relative abundance of these transcripts. […] A dose-responsive effect was further tested for Compound 183 using qRT-PCR in this model. […] Collectively, the data support the notion that Compound 183 promotes TDP-43 nuclear function under proteotoxic stress.
# [1] = Compound 183 500 nM with MG-132 1 μM, relative to MG-132 control
# [2] = by 500 nM, MG-132 1 μM challenged motor neurons
structure (smiles),measurement,setting,value
"Cc1cc(-c2ccc(C3CCN(C(C)C)CC3)cc2)sc1C(=O)N1CC[C@H](N)C1 [Compound 183, (S)-(3-aminopyrrolidin-1-yl)(5-(4-(1-isopropylpiperidin-4-yl)phenyl)-3-methylthiophen-2-yl)methanone]",IC50,TDP-43 aggregation,< 500 nM
same,"cryptic splicing events of STMN2, ELAVL3 and PFKP (qRT-PCR)",TDP-43 splicing function; [1],nearly complete inhibition for all three cryptic splicing events
same,"splicing of the normal transcripts, TDP-43 splicing function (qRT-PCR)",TDP-43 splicing function; [1],increased splicing of the normal transcripts; also recorded: restoring splicing function of TDP-43
same,"restoration of normal STMN2 and ELAVL3 levels (qRT-PCR, dose response)",TDP-43 splicing function; MG-132 1 μM challenged motor neurons,modest in its ability to restore normal STMN2 and ELAVL3 levels
same,"maintenance of TDP-43 splicing function, dose response (qRT-PCR)","TDP-43 splicing function; MG-132 1 μM challenged motor neurons, effective concentration range for most transcripts",restoring TDP-43 splicing function in dose dependent manner
same,"restoration of normal splicing of PFKP (qRT-PCR, dose response)",TDP-43 splicing function; [2],fully restored normal splicing of PFKP
same,"suppression of cryptic splicing, all transcripts tested (qRT-PCR, dose response)",TDP-43 splicing function; [2],strong suppression of cryptic splicing
